Laboratory results from patent publication US20030158403A1, “Nuclease resistant chimeric oligonucleotides” (ISIS Pharmaceuticals, Inc., priority 2001, published 2003).
In the oligonucleotide strings, read from the 5' end, every base follows the letter of its sugar. An asterisk marks phosphorothioate; unmarked linkages are phosphodiester. Other units and linkages are bracketed, terminal groups are in braces. A string of capitals states the bases alone. [L-DNA] = L-2'-deoxythymidine (L-thymidine); d = 2'-deoxy (DNA)

Assays:
[1] = system: Target RNA; assay: Tm values of L-thymidine modified oligonucleotides against RNA; format: binding
[2] = In vivo nuclease stability of L/D-oligonucleotide chimera, IV bolus, organs analyzed by CGE; details: 24 h after IV bolus, BalbC mouse
Description: Here we report the in vivo nuclease stability of L/D-oligonucleotide chimera in mouse. We synthesized the phosphoramidite and CPG derived from L-thymidine, which was synthesized from a novel route [Jung, E. M.; Xu, Y. Tetrahedron Lett. 1997, 24, 4199-4202]. A 20 mer phosphorothioate oligonucleotide ISIS-120745 (antisense to mouse ICAM-1) was capped with L-2′-deoxy thymidine at 3′and 5′-positions. The oligonucleotide was then administered IV bolus into BalbC mouse. After 24 h. mouse was sacrificed and the oligonucleotide was isolated from different organs. Percentage of full-length oligonucleotide present in different organs were analyzed by CGE.

| Substance | Tm, Target RNA [1] | degradation in organs [2] | ΔTm ([1]; relative to the unmodified parent oligonucleotide) | intact full-length oligonucleotide isolated from all the major organs [2] |
| --- | --- | --- | --- | --- |
| ISIS 5132: 5′ TCCCGCTGTGATGCATT 3′ (SEQ ID NO: 6), all P = S; unmodified counterpart of 121785 (dT*dC*dC*dC*dG*dC*dT*dG*dT*dG*dA*dT*dG*dC*dA*dT*dT) | 60.6 °C | – | – | – |
| ISIS 8651: TGCATCCCCCAGGCCACCAT (SEQ ID NO: 4), all P = S; unmodified counterpart of 120745 (dT*dG*dC*dA*dT*dC*dC*dC*dC*dC*dA*dG*dG*dC*dC*dA*dC*dC*dA*dT) | 68.7 °C | degraded completely | – | – |
| ISIS 120745: 5′ T*GC ATC CCC CAG GCC ACC AT*3′; T* = L-Thymidine, all P = S; antisense to mouse ICAM-1 (antisense TGCATCCCCCAGGCCACCAT; sugars from the 5' end [L-DNA]1 d18 [L-DNA]1, all phosphorothioate, methylation of C not given here) | 66.94 °C | – | −1.76 °C | > 90% |
